According to patent US4385057A, “Diphenylbutyl-piperazinecarboxamides in pharmaceutical compositions and methods” (priority 1978, dated 1983):
Read-outs that look alike come from different tables or passages of the source.

Key:
[1] = tested on: isolation-induced aggressive behaviour of male mice; assay: Isolation-induced aggressive behaviour; assay type: in vivo, mouse (male NMR mice); conditions: Mus musculus, sc, read-out: ED50, mg/kg, sc (dose inhibiting aggressive behaviour among 50 percent of the pairs)
Excerpt: Male mice subjected to prolonged isolation develop aggressive behavior against each other when paired. […] The clinical correlation of this test indicates tranquillizing and anxiolytic activities as well as antiaggressive properties as such (R. L. Duncan et al., J. Med. Chem. 13, 1 (1970)).
This type of aggression is interesting because it is known that this kind of emotional behaviour might be located in limbic structures in the brain (P. D. Mac Lean, Psychosom. Med. 11, 338 (1949)).
Every week 24 male NMR mice, weighing 20-22 g, were isolated in Makrolon cages for three weeks with diet and water ad libitum. A piece of cardboard was placed between the cages to prevent visual contact.
To test aggressiveness the mice were paired in a neutral area, a beaker (14 cm high and diameter 14 cm). A pair is considered aggressive if both the animals show clear signs of fighting within 5 min. This fighting is characterized by biting and vocalization. As soon as fighting is seen, the mice are separated and brought to their home cage. […] Animals showing no aggression are discarded. […] The test substance is administered s.c. (0.2-0.4 ml/20 g). The mice are paired 1/2 h, 1 h, 2 h, 4 h, 6 h and 24 h after the injection for trials of 5 min. duration.
The ED50 -value (mg/kg) reported is the dose inhibiting aggressive behaviour among 50 percent of the pairs 1.0 hour after drug administration.

[2] = tested on: exploratory activity / climbing of mice; assay: Climbing (inability to ascend net-ladder); assay type: in vivo, mouse (NMRI female); conditions: Mus musculus, sc, read-out: ED50, mg/kg, s.c. (dose rendering 50% of the mice incapable of entering the top of the net-ladder)
Experimental: When mice are placed in a new area, they explore the whole available territory. Minor and major tranquillizers inhibit the exploratory activity. The sedative effect of drugs is evaluated by the inability of mice to ascend a netladder. The process of climbing is very complex and consists of psychical and taxic (motor performance) components. For the experiments a transparent cage (36×27×23 cm) and a net-ladder (35×6 cm) standing with an inclination of 45° was used. (P. Kneip. Arch. Int. Pharmacodyn. 76, 238 (1960); F. Sandberg, Arzneimittelforsch. 4, 203 (1959)).
The test compound is administered s.c. (10 ml/kg) to 6 NMRI female mice per dose. The mice are marked with a number code from 1 to 6, in order to recognize each individual mouse. In 25 minutes, 55 minutes, 1 h 55 minutes and 3 h 55 minutes time after the administration the mice are placed in the above-mentioned cage for 10 minutes. The number of mice ascending the top of the net-ladder is noted. Other behavioural items are also noted. The ED50 (mg/kg) reported is the dose rendering 50% of the mice incapable of entering the top of the net-ladder 0.5 h after the administration.

[3] = tested on: guinea pig papillary muscle; conditions: cited from earlier work
pigs = assay: Social parameters and aggression of pigs in stress situations; assay type: in vivo, pig; conditions: in words; for stabilization of social parameters: aggression, hierarchy, interaction, cleanliness, feeding behaviour; for effect on aggression: stress situations
Excerpt: Among domestic animals pigs are exposed to a wide variety of stresses, e.g. after weaning, at transports and at regrouping of animals. By studying social parameters such as aggression, hierarchy, interaction, cleanliness in their living space and feeding behaviour in different stress situations the new compounds of formula I have been compared with established drugs, e.g. azaperone and acepromazine, now used in handling pigs.

central 5HT receptors = conditions: established antidepressant drugs; in words; cited from earlier work
[4] = tested on: mouse-killing behaviour of rats; assay: Spontaneous mouse-killing (muricide) by rats; assay type: in vivo, rat (male hooded Long-Evans); conditions: Rattus norvegicus, sc
Excerpt: For the purpose of detecting new psychotropic substances with antiaggressive properties, pharmacologist have used several different models. […] This form of aggressive behaviour which is considered to be of predatory nature, is physiologically and topographically different from other forms of aggression (M. O'Boyle, Psychol. Bull. 81, 261 (1974)). Mousekilling is a spontaneous behaviour in some rat strains e.g. male hooded Long-Evans rats. Male hooded Long-Evans rats placed in individual cages were used. By testing a number of rats, a colony of rats was obtained that killed a mouse whenever introduced into the rats' cage, by biting the mouse through the cervical spinal cord. Each rat was tested for mouse-killing behaviour (killing a mouse within 5 minutes) prior to each experiment, thus serving as its own positive control. For each dose level 6 positive rats were selected and the test substance was administered by subcutaneous injection. Doses were selected to form a dose-response curve and the mean effective dose (ED50, mg/kg) was calculated by means of linear regression. The rats were tested at 1, and 2 hours after being injected subcutaneously.

[5] = tested on: acetic acid induced writhing; assay: Writhing test (analgetic properties); assay type: in vivo, mouse (NMRI female); conditions: Mus musculus, sc, 20 min before acetic acid i.p.; read-out: ED50, mg/kg, s.c. (dose blocking the writhing behaviour in 50% of the animals)
Experimental: The writhing test is a frequently used test of analgetic properties (L. B. Witkin et al., J. Pharmacol. Exp. Ther. 133, 400 (1961)). If acetic acid (0.5%, 15 ml/kg) is injected intraperitoneally in mice (NMRI) they will without exception develop a writhing behaviour characterized by stretching their hind legs. The drugs to be tested were administered subcutaneously to 6 female mice at each dose 20 min. before the injection of the acetic acid. After 10 min. the behaviour of the mice was studied in 5 min. The ED50 value is the dose blocking the writhing behaviour in 50% of the animals during the 5 min. study period. [drawing 13]

Geller conflict test = assay type: in vivo; conditions: s.c., ** (Student's t-test)
Excerpt: The Geller conflict test for anxiolytics clearly meets the requirements for a standard model and is most useful operant paradigm in screening for new drugs. (I. Geller and J. Seifler, Psychopharmacologia l, 482 (1960); B. Blackwell and W. E. Whitehead, In: A. Sudilovsky, S. Gershorn and B. Beer, eds. Predictability in Psychopharmacology: Preclinical and Clinical Correlations. Raven Press New York pp. 121, (1975)).

thymus = assay: Swim-test (stress-induced thymolymphatic involution); assay type: in vivo, mouse (NMRI female); conditions: for protecting capacity against the induced stress: in words; for Relative weight of thymus, ×100: once 10 min before first swim-test, saline stressed 36, unstressed 66, Wilcoxon's ranking test
Excerpt: If an animal is in a stage of exhaustion the rise in glucocorticoids induced by the stress causes thymolymphatic involution and elicites a characteristic change in blood count. […] In the experiments NMRI female mice were used with well-documented thymic glands. In the experiments the mice were divided in four groups. In the first group the mice were allowed to stay in their home cages all the time. In the second group saline-treated mice were repeatedly forced to swim in water at a temperature of +5° C. for 1 min. once every hour, 6 times per day for four days. In the third group the mice were pre-treated once with the test compound 10 min. before the first swim-test, otherwise the mice were manipulated in the same way as in the second group. In the fourth group the mice were adrenalectomized three days before the start of the swim tests. Otherwise also this group was manipulated as the second group. All mice were killed on the 5th day of the experiment and the weight of the thymic gland registered.

gastric ulcers in rats = assay: Stress-induced ulcers (restraint and cold); assay type: in vivo, rat (female Sprague Dawley); conditions: 15 min before cold and restraint
Excerpt: A number of methods have been described for studies of somatic expression of adverse stimulation in experimental animals. One method is based upon the development of gastric lesions in rat subjected to some form of environmental stress. The most frequently used mode of stressing the rats is by simple physical restraint. In the experiments to be described rats were immobilized in rigid plastic devices. As repeatedly shown the restraint and the exposure to cold, act synergistically to produce gastric ulcers. The method for production of stress ulcus in rats has been described earlier (R. J. Levine In: C. J. Pfeiffer ed., Peptic Ulcer, Scand. Univ. Books, Copenhagen 1971). The animals in the experiments, female Sprague Dawley rats 180-230 g, have been kept immobilized for three hours at +5° C. For 24 hours prior to restraint the animals furthermore were not allowed to ingest anything but tap water. In all experiments the rats were divided in three groups. In the first group all animals were pre-treated only with saline 15 min. before the exposure to the stressors. […] The third group consisted always of the compound to be tested in this model. The number and severity of gastric erosions in the opened stomach of controls and drug-pre-treated animals were scored. The average number of gastric ulcers in the control rats were put equal to a hundred percent. In table VI the potency of some compounds to protect against gastric ulcers in the described experiments is reported. All pre-treatments were always made 15 min. before the exposure to cold and restraint.

[6] = tested on: guinea pig papillary muscle; assay: Prolongation of effective refractory period in guinea pig papillary muscle; conditions: 10^-7 M; pacing frequencies 1, 2 and 4 Hz
[7] = tested on: isolation-induced aggressive behaviour of male mice; conditions: background on clinically used drugs; in words; cited from earlier work
[8] = 1.0 hour after drug administration
[9] = read-out: ED50, mg/kg, s.c., 2 hrs after injection
[10] = 1 hr after injection, read-out: ED50, mg/kg, s.c., 1 hr

In the case of `CN(C)CCCN1c2ccccc2Sc2ccc(Cl)cc21` [Chlorpromazine, reference compound], the ED50 ([1]; 1 h) was 1.4 mg/kg and the ED50 ([2]; 0.5 h) was 2 mg/kg.

In the case of `CCN(CC)CC(=O)Nc1c(C)cccc1C` [Lidocain], the “change of the effective refractory period” value (“change” below) ([3]; 10^-7 M) is given as 20 ms.

With `CC(=O)c1ccc2c(c1)N(CCCN(C)C)c1ccccc1S2` [Acepromazine] the “stabilization of social parameters” value (pigs) was “did not improve any social parameter” and the effect on aggression (pigs) was “blocked aggression by an unspecific mechanism of sedation”.

For `CCCCc1oc2ccccc2c1C(=O)c1cc(I)c(OCCN(CC)CC)c(I)c1` [Amiodarone], the “change” value ([3]; 10^-5 M) is listed as 35 ms.

In the case of `CN1CCN2c3ccccc3Cc3ccccc3C2C1` (stereo not drawn) [Mianserin], the “blockade of central 5HT receptors” value (central 5HT receptors) is listed as “potent blockers”.

`CNC(=S)N1CCN(CCCC(c2ccc(F)cc2)c2ccc(F)cc2)CC1` [IV, N'-Methyl-4-[4,4-(di-p-fluorophenyl)butyl]-1-piperazinecarbothioamide] showed an ED50 [1, 8] of 2 mg/kg, an ED50 [4, 9] of 0.1 mg/kg and an ED50 [4, 10] of 0.1 mg/kg. It also gave an ED50 ([2]; 0.5 h after administration) of 5.1 mg/kg and an ED50 [5] of 1.4 mg/kg.

`CCNC(=O)N1CCN(CCCC(c2ccc(F)cc2)c2ccc(F)cc2)CC1` [II, N'-Ethyl-4-[4,4-(di-p-fluorophenyl)butyl]-1-piperazinecarboxamide] gave an ED50 [1, 8] of 1.3 mg/kg, an ED50 [4, 9] of 1.9 mg/kg and an ED50 [4, 10] of 0.4 mg/kg. The ED50 ([2]; 0.5 h after administration) was 0.7 mg/kg, the “Percent shocks compared to controls” value (Geller conflict test; dose 0.5 mg/kg) was 250% and the “protecting capacity against the induced stress” value (“protecting capacity” below) (thymus) was “most protecting capacity”. For the same compound, the “Relative weight of thymus, ×100” value (thymus; pre-treatment dose 1.0 mg/kg) was 50, the “Inhibition, % (gastric ulcers)” value (gastric ulcers in rats; pre-treatment dose 1.0 mg/kg) was 43% and the ED50 [5] was 0.7 mg/kg. The “prolongation of the effective refractory period” value [6] was 30 ms.

In the case of `CN1CC[C@]23c4c5ccc(O)c4O[C@H]2[C@@H](O)C=C[C@H]3[C@H]1C5` [Morphine], the “Inhibition, % (gastric ulcers)” value (gastric ulcers in rats; pre-treatment dose 2.0 mg/kg) was 67%.

In the case of `CC(C)NCC(O)COc1cccc2ccccc12` (stereo not drawn) [Propranolol], the “protecting capacity” value (thymus) was “less effective” and the “Relative weight of thymus, ×100” value (thymus; pre-treatment dose 10.0 mg/kg) was 48.

Work on `CN(C)CCC=C1c2ccccc2CCc2ccccc21` [Amitriptyline, reference compound] yielded an ED50 [1, 8] of 5 mg/kg, an ED50 [4, 9] of 6.4 mg/kg and an ED50 [4, 10] greater than 10 mg/kg. The “blockade of central 5HT receptors” value (central 5HT receptors) was “potent blockers”.

Work on `CNC(=O)N1C[C@H](C)N(CCCC(c2ccc(F)cc2)c2ccc(F)cc2)C[C@H]1C` (relative stereo) [III, trans-2,5-Dimethyl-N'-methyl-4-[4,4-(di-p-fluorophenyl)butyl]-1-piperazinecarboxamide] yielded an ED50 [1, 8] of 2.6 mg/kg, an ED50 [4, 9] of 2.9 mg/kg and an ED50 [4, 10] of 1.9 mg/kg. For the same compound, the ED50 ([2]; 0.5 h after administration) was 1 mg/kg and the ED50 [5] was 1 mg/kg.

With `O=C(CCCN1CCN(c2ccccn2)CC1)c1ccc(F)cc1` [Azaperone] the “protecting capacity” value (thymus) was “less effective”, the “Relative weight of thymus, ×100” value (thymus; pre-treatment dose 1.0 mg/kg) was 48 and the “Inhibition, % (gastric ulcers)” value (gastric ulcers in rats; pre-treatment dose 1.0 mg/kg) was 0%. The “stabilization of social parameters” value (pigs) was “did not improve any social parameter” and the effect on aggression (pigs) was “blocked aggression by an unspecific mechanism of sedation”.

For `C=C[C@H]1C[N@@]2CC[C@H]1C[C@@H]2[C@@H](O)c1ccnc2ccc(OC)cc12` [Quinidine], the “change” value ([3]; 10^-6 M) is given as 14 ms.

For `O=C(CCCN1CCC(O)(c2ccc(Cl)cc2)CC1)c1ccc(F)cc1` [Haloperidol, reference compound], the ED50 ([2]; 0.5 h) was 1.3 mg/kg.

With `CNC(=O)N1CCN(CCCC(c2ccc(F)cc2)c2ccc(F)cc2)CC1` [I, N'-Methyl-4-[4,4-(di-p-fluorophenyl)butyl]-1-piperazinecarboxamide] the ED50 [1, 8] was 4.8 mg/kg, the ED50 [4, 9] was 0.7 mg/kg and the ED50 [4, 10] was 0.5 mg/kg. The ED50 ([2]; 0.5 h after administration) was 1.5 mg/kg and the ED50 [5] was 0.5 mg/kg.

In the case of `CN1C(=O)CN=C(c2ccccc2)c2cc(Cl)ccc21` [Diazepam, reference compound], the “Percent shocks compared to controls” value (Geller conflict test; dose 1.0 mg/kg) is given as 240% and the “effect on isolation-induced aggressive behaviour” value [7] is given as “active”.
